Consider two molecules from ChEMBL document CHEMBL5042558, “Selective Macrocyclic Inhibitors of DYRK1A/B” (ACS Med Chem Lett, 2022).

Molecules are shown by their SMILES. Some results are limits rather than exact numbers.

For data set [1], the target named is T1, Dual specificity tyrosine-phosphorylation-regulated kinase 1B (Homo sapiens, UniProt Q9Y463). Description: Inhibition of DYRK1B (unknown origin) at 1 uM by kinomescan method.
Data set [2] addresses T1, Dual specificity tyrosine-phosphorylation-regulated kinase 1B. Description: Inhibition of DYRK1B (unknown origin) measured after 6 hrs in presence of ATP by Z'-LYTE assay.
For data set [3], the target named is T2, Focal adhesion kinase 1 (Homo sapiens, UniProt Q05397). Description: Inhibition of FAK (unknown origin) at 1 uM by kinome scan method.
T2 sequence (Q05397 whole entry): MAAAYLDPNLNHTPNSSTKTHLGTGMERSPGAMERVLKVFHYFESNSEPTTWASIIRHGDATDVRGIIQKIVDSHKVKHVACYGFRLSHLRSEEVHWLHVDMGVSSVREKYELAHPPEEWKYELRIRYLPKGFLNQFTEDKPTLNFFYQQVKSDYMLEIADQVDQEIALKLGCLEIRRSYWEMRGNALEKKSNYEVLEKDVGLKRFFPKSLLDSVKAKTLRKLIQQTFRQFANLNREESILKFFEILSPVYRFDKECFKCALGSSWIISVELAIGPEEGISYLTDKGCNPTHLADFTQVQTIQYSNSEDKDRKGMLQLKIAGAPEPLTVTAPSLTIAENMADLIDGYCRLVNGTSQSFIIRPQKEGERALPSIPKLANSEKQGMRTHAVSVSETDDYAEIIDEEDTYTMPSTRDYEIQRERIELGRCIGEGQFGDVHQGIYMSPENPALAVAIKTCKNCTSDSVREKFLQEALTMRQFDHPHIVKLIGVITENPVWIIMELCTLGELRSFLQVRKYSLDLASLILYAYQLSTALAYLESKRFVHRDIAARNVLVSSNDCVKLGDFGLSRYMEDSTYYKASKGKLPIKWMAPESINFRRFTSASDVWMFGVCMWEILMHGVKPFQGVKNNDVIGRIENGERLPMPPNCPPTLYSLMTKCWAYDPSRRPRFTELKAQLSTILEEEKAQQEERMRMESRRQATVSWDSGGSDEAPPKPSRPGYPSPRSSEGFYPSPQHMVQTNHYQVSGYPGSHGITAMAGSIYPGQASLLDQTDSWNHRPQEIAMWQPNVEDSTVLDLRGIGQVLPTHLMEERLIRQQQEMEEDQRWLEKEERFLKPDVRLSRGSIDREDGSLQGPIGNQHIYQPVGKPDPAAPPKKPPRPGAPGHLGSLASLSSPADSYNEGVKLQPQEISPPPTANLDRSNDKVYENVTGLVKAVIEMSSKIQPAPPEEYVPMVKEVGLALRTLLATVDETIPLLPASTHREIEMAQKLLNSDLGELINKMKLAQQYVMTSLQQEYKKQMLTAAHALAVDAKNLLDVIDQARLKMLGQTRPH
Data set [4] can be described thus: AUC (0-infinity) in C57BL/6 mouse at 2 mg/kg, iv measured upto 8 hrs by LC-MS/MS analysis. It counts as ADME, organism-based. More on the design: route intravenous, dose 2 mg/kg, time <=8. To be noted: in vivo.
Data set [5] concerns CAL-27. Description: Induction of apoptosis in human CAL-27 cells assessed as BCL-xL level at 1 uM after 24 hrs by Immunoblot analysis relative to control. It counts as functional. Background: Immunoblotting shows a protein as a band on a membrane.
Another data set relates to FaDu. Description: Antiproliferative activity against human FaDu cells assessed as reduction in cell viability at 10 uM measured after 72 hrs by Celltiter-Glo luminescent assay. It counts as functional.
Data set [6] addresses Serine/threonine-protein kinase Sgk1 (Homo sapiens, UniProt O00141). Description: Inhibition of SGK (unknown origin) at 1 uM by kinome scan method.
Data set [7] addresses T3, Ribosomal protein S6 kinase alpha-3 (Homo sapiens, UniProt P51812). Description: Inhibition of RSK2 (unknown origin) in human CAL-27 cells measured after 6 hrs by select screen kinase assay. It counts as cell-based.
Data set [8] addresses Mitogen-activated protein kinase 10 (Homo sapiens, UniProt P53779). Description: Inhibition of JNK3 (unknown origin) in human CAL-27 cells measured after 6 hrs by select screen kinase assay. It counts as cell-based.
In data set [9] the test system is CAL-27. Description: Induction of apoptosis in human CAL-27 cells assessed as increase in cleaved-PARP level at 10 uM after 24 hrs by Immunoblot analysis relative to control. It counts as functional.
Data set [10] concerns the target Mitogen-activated protein kinase 9 (Homo sapiens, UniProt P45984). Description: Inhibition of JNK2 (unknown origin) in human CAL-27 cells measured after 6 hrs by select screen kinase assay. It counts as cell-based.
The test system of data set [11] is CAL-27. Description: Induction of apoptosis in human CAL-27 cells assessed as PARP level at 1 uM after 24 hrs by Immunoblot analysis relative to control. It counts as functional.
Data set [12] can be described thus: Cmax in C57BL/6 mouse at 10 mg/kg, po measured upto 8 hrs by LC-MS/MS analysis. Details: route oral, dose 10 mg/kg, time <=8. It counts as ADME, organism-based. Conditions: in vivo.
The test system of data set [13] is CAL-27. Description: Induction of apoptosis in human CAL-27 cells assessed as decrease in FOXO3A phosphorylation at serine 253 residue at 5 uM after 24 hrs by Immunoblot analysis relative to control. It counts as functional. More on the design: scale not given: the % may be the effect or the level left.
In data set [14] the test system is CAL-27. Description: Induction of apoptosis in human CAL-27 cells assessed as BCL-xL level at 10 uM after 24 hrs by Immunoblot analysis relative to control. It counts as functional.
The target of data set [15] is Ribosomal protein S6 kinase alpha-2 (Homo sapiens, UniProt Q15349). Description: Inhibition of RSK3 (unknown origin) in human CAL-27 cells measured after 6 hrs by select screen kinase assay. It counts as cell-based.
Data set [16] in a line: Clearance in C57BL/6 mouse at 2 mg/kg, iv measured upto 8 hrs by LC-MS/MS analysis. It counts as ADME, organism-based. Conditions: in vivo.
Data set [17] has as its system CAL-27. Description: Induction of apoptosis in human CAL-27 cells assessed as decrease in FOXO3A phosphorylation at serine 253 residue at 1 uM after 24 hrs by Immunoblot analysis relative to control. It counts as functional. More on the design: scale not given: the % may be the effect or the level left.
Data set [18] has as its system CAL-27. Description: Induction of apoptosis in human CAL-27 cells assessed as decrease in AKT phosphorylation at S473 residue at 0.5 uM after 24 hrs by Immunoblot analysis relative to control. It counts as functional. Details: scale not given: the % may be the effect or the level left.
In data set [19] the test system is CAL-27. Description: Induction of apoptosis in human CAL-27 cells assessed as PARP level at 10 uM after 24 hrs by Immunoblot analysis relative to control. It counts as functional.
The test system of data set [20] is CAL-27. Description: Induction of apoptosis in human CAL-27 cells assessed as decrease in AKT phosphorylation at S473 residue at 5 uM after 24 hrs by Immunoblot analysis relative to control. It counts as functional. More on the design: scale not given: the % may be the effect or the level left.
The target of data set [21] is T3, Ribosomal protein S6 kinase alpha-3. Description: Inhibition of RSK2 (unknown origin) at 1 uM by kinome scan method.
Data set [22] has as its target Mitogen-activated protein kinase kinase kinase 19 (Homo sapiens, UniProt Q56UN5). Description: Inhibition of YSK4 (unknown origin) at 1 uM by kinome scan method.
Data set [23] in a line: AUC (0-infinity) in C57BL/6 mouse at 10 mg/kg, po measured upto 8 hrs by LC-MS/MS analysis. Details: route oral, dose 10 mg/kg, time <=8. It counts as ADME, organism-based. To be noted: C57BL/6, mouse, in vivo.
Data set [24] is described as follows: Oral bioavailability in C57BL/6 mouse at 10 mg/kg measured upto 8 hrs by LC-MS/MS analysis. It counts as ADME, organism-based. To be noted: C57BL/6, mouse, in vivo.
Data set [25] has as its system CAL-27. Description: Induction of apoptosis in human CAL-27 cells assessed as increase in cleaved-PARP level at 1 uM after 24 hrs by Immunoblot analysis relative to control. It counts as functional.
Data set [26] deals with CAL-27. Description: Induction of apoptosis in human CAL-27 cells assessed as decrease in FOXO3A phosphorylation at serine 253 residue at 10 uM after 24 hrs by Immunoblot analysis relative to control. It counts as functional. More on the design: scale not given: the % may be the effect or the level left.
Data set [27] deals with CAL-27. Description: Antiproliferative activity against human CAL-27 cells assessed as reduction in cell viability at 10 uM measured after 72 hrs by Celltiter-Glo luminescent assay. It counts as functional.
Data set [28] relates to CAL-27. Description: Induction of apoptosis in human CAL-27 cells assessed as decrease in AKT phosphorylation at S473 residue at 1 uM after 24 hrs by Immunoblot analysis relative to control. It counts as functional. More on the design: scale not given: the % may be the effect or the level left.
In data set [29] the target is Dual specificity mitogen-activated protein kinase kinase 4 (Homo sapiens, UniProt P45985). Description: Inhibition of MEK4 (unknown origin) at 1 uM by kinome scan method.
Chain of Dual specificity mitogen-activated protein kinase kinase 4 (P45985 whole entry): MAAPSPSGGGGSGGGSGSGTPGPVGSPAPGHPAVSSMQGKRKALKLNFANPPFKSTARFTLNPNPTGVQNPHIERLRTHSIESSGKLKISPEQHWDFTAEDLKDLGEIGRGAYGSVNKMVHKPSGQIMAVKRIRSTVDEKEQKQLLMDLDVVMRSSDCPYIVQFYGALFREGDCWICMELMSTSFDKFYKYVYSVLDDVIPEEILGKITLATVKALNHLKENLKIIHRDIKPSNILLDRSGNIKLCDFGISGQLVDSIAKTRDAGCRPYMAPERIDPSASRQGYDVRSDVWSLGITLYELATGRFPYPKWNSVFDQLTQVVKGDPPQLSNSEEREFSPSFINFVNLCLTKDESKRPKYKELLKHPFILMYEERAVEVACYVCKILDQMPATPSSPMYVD
The nature of data set [30]: Half life in C57BL/6 mouse at 2 mg/kg, iv measured upto 8 hrs by LC-MS/MS analysis. It counts as ADME, organism-based. Conditions: in vivo.
In the next data set the target is Misshapen-like kinase 1 (Homo sapiens, UniProt Q8N4C8). Description: Inhibition of MINK1 (unknown origin) at 1 uM by kinome scan method.
Data set [31] concerns the target Ribosomal protein S6 kinase alpha-6 (Homo sapiens, UniProt Q9UK32). Description: Inhibition of RSK4 (unknown origin) at 1 uM by kinome scan method.
The test system of data set [32] is CAL-27. Description: Induction of apoptosis in human CAL-27 cells assessed as decrease in FOXO3A phosphorylation at serine 253 residue at 0.5 uM after 24 hrs by Immunoblot analysis relative to control. Details: scale not given: the % may be the effect or the level left. It counts as functional.
Data set [33] can be described thus: Half life in C57BL/6 mouse at 10 mg/kg, po measured upto 8 hrs by LC-MS/MS analysis. It counts as ADME, organism-based. Conditions: in vivo.
Data set [34] is described as follows: Cmax in C57BL/6 mouse at 2 mg/kg, iv measured upto 8 hrs by LC-MS/MS analysis. It counts as ADME, organism-based. Details: route intravenous, dose 2 mg/kg, time <=8. To be noted: in vivo.
For data set [35], the target named is T2, Focal adhesion kinase 1. Description: Inhibition of FAK (unknown origin) in human CAL-27 cells measured after 6 hrs by select screen kinase assay. It counts as cell-based.
Data set [36] has as its target Mitogen-activated protein kinase 8 (Homo sapiens, UniProt P45983). Description: Inhibition of JNK1 (unknown origin) in human CAL-27 cells measured after 6 hrs by select screen kinase assay. It counts as cell-based.
The nature of data set [37]: Clearance in C57BL/6 mouse at 10 mg/kg, po measured upto 8 hrs by LC-MS/MS analysis. It counts as ADME, organism-based. Conditions: in vivo.
Data set [38] deals with Ribosomal protein S6 kinase alpha-1 (Homo sapiens, UniProt Q15418). Description: Inhibition of RSK1 (unknown origin) in human CAL-27 cells measured after 6 hrs by select screen kinase assay. It counts as cell-based.
The next data set has as its system HEK-293T. Description: Antiproliferative activity against human HEK293T cells assessed as reduction in cell viability at 10 uM measured after 72 hrs by Celltiter-Glo luminescent assay. It counts as toxicity, cell-based. (In general: In ATP-based viability assays light output follows the ATP content of the culture.)
Data set [39] deals with CAL-27. Description: Induction of apoptosis in human CAL-27 cells assessed as decrease in AKT phosphorylation at S473 residue at 10 uM after 24 hrs by Immunoblot analysis relative to control. It counts as functional. More on the design: scale not given: the % may be the effect or the level left.

T3 sequence (P51812 whole entry): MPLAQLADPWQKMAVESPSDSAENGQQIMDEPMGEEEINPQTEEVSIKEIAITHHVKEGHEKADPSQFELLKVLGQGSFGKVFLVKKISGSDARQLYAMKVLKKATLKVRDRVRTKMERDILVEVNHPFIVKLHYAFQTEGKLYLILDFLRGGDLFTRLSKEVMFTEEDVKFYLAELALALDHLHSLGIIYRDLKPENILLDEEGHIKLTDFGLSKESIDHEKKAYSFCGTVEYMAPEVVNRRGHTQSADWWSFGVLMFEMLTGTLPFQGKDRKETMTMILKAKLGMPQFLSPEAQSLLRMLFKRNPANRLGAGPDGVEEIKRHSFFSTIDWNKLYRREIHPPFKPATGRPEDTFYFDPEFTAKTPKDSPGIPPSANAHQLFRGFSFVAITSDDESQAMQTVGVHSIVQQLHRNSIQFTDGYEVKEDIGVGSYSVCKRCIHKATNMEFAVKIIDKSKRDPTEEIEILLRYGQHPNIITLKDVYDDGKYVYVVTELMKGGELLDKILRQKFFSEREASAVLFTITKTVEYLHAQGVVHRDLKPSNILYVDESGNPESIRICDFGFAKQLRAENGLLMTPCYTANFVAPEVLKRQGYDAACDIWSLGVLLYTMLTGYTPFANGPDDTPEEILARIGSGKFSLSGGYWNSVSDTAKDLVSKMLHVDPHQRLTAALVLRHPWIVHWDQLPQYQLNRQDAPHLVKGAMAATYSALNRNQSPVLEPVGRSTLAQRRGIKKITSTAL
T1 sequence (Q9Y463 whole entry): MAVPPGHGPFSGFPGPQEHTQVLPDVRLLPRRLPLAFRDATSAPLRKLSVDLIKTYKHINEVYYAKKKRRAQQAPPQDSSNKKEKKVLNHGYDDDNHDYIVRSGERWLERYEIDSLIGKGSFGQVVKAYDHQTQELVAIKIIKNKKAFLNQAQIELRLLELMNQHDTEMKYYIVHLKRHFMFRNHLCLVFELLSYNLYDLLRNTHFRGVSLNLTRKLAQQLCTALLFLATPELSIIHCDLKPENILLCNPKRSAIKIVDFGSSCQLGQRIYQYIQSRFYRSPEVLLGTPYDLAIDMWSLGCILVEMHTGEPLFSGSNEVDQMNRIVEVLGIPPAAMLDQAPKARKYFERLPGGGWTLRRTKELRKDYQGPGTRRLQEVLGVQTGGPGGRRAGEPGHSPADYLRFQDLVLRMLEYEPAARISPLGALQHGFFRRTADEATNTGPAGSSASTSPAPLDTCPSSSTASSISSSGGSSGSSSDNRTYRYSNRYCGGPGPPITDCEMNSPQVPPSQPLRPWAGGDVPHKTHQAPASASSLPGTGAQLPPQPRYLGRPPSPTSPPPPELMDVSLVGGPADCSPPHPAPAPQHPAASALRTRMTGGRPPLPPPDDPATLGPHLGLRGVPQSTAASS
Chain of Serine/threonine-protein kinase Sgk1 (O00141 whole entry): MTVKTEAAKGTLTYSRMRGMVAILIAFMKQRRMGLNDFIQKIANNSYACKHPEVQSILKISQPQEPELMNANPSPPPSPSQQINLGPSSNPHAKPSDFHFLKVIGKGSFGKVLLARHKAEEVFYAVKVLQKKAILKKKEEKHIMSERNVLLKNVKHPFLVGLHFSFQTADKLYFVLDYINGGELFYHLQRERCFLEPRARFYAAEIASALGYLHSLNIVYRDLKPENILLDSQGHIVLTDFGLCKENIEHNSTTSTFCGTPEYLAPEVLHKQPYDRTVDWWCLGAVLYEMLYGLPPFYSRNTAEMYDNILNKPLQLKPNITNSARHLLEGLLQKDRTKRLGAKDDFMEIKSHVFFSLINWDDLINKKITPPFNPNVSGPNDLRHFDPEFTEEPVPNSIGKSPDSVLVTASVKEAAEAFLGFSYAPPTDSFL
Chain of Ribosomal protein S6 kinase alpha-6 (Q9UK32 whole entry): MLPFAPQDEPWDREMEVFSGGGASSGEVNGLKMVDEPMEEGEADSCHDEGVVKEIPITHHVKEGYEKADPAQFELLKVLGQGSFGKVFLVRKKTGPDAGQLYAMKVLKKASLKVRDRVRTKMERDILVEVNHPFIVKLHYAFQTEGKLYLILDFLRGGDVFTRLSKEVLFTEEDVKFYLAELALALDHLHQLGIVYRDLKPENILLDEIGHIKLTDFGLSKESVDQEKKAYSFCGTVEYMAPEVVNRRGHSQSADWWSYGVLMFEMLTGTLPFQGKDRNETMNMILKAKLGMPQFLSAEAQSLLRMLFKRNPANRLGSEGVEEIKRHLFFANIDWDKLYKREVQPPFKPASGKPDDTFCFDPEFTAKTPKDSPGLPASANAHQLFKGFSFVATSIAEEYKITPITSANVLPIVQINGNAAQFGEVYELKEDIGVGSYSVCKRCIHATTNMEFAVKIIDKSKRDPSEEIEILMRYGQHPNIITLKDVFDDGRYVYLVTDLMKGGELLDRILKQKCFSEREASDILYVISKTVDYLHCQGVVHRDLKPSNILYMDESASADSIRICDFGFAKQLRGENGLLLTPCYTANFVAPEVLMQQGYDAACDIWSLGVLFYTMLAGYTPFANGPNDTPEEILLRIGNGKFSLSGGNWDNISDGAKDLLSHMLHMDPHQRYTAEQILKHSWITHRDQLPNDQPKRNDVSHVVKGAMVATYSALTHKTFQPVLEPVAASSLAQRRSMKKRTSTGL
Chain of Mitogen-activated protein kinase 9 (P45984 whole entry): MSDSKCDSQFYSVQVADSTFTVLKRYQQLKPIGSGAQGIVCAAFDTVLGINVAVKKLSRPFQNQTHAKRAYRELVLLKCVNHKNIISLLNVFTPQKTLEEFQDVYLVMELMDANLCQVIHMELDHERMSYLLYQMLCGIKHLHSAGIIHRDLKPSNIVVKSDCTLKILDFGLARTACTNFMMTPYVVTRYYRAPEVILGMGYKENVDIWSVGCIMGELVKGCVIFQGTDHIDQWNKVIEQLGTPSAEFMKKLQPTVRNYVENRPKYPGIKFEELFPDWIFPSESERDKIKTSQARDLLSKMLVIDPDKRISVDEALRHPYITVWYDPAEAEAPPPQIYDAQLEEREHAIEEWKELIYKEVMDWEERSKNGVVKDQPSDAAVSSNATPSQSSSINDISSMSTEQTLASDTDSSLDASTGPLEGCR
Chain of Mitogen-activated protein kinase 8 (P45983 whole entry): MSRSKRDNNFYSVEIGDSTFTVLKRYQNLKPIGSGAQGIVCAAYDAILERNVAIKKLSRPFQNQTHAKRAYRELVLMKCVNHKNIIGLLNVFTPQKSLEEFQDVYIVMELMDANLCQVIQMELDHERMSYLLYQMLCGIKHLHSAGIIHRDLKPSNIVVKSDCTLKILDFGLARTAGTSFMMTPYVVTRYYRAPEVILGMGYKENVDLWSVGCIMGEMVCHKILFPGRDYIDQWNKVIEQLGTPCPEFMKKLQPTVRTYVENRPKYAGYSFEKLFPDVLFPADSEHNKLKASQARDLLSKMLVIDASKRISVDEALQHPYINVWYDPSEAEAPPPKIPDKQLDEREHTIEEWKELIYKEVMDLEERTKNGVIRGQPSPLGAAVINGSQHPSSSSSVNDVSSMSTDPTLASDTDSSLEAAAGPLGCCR

By IC50 is commonly meant the point on the concentration scale where inhibition reaches its midpoint. For `CN1Cc2nn(C)cc2-c2cnc3[nH]cc(c3c2)-c2cnn(c2)CCCC1=O`, the IC50 in data set [1] worked out at 19 nM; in data set [2], 70 nM.
For orientation: AUC(0-inf) means the area under the concentration-time curve extrapolated to infinity. For orientation: Cmax means the highest concentration seen after dosing. In general, clearance refers to the volume of plasma or blood freed of the substance per unit of time. In general, bioavailability refers to the share of a dose that reaches the circulation, judged against a reference dose that is usually intravenous. In general, half-life refers to how long it takes for the measured level to halve. In general, CL/F refers to the apparent clearance, not corrected for the fraction that reaches the circulation. With `CN1Cc2nn(C)c(C#N)c2-c2cnc3[nH]c(F)c(c3c2)-c2cn(nc2C(F)(F)F)CCCC1=O`, the concentration for half-maximal inhibition (IC50) on Focal adhesion kinase 1 [3] was 210 nM; in data set [6], 690 nM; in data set [7] it was 80 nM; in [8], over 10000 nM; in [10] it was 1100 nM; in [15], 61 nM. Moreover, the IC50 came to 182 nM in data set [21]; 1620 nM in data set [22]; 132 nM in [29]; 115 nM against Misshapen-like kinase 1; 37 nM in data set [31]; 90 nM at Focal adhesion kinase 1 [35]. Moreover, the 50% inhibitory concentration (IC50) in data set [36] came out at 1130 nM; in data set [38] it was 82 nM. In addition, the AUC(0-inf) in data set [4] amounted to 8950 ng·h/mL; in data set [23], 5770 ng·h/mL. The Activity in the data set with CAL-27 [5] is listed as 61%; with FaDu it was 40%; with CAL-27 [9] it was 540%; with CAL-27 [11] it was 104%; in the data set with CAL-27 [13] it was 10%; in the data set with CAL-27 [14] it was 58%. For the same molecule, the Activity with CAL-27 [17] turned out to be 49%; in the data set with CAL-27 [18], 81%; with CAL-27 [19], 93%; in the data set on CAL-27 [20] it was 74%; in the data set on CAL-27 [25] it was 128%; in the data set on CAL-27 [26] it was 38%. Also, the Activity in the data set with CAL-27 [27] is reported as 45%; in the data set on CAL-27 [28], 85%; with CAL-27 [32], 56%; in the data set on HEK-293T it was “Non-Toxic”; in the data set with CAL-27 [39] it was 63%. For the same molecule, the peak concentration (Cmax) amounted to 6.4 µM in [12] and 34.1 µM in data set [34]. Besides, in [16], the clearance is 5.9 mL/min/kg. In [24], the bioavailability was determined as 12.3%. Besides, the half-life is 1.2 h in data set [30] and 2.4 h in data set [33]. This molecule registered a CL/F in data set [37] of 29.3 mL/min/kg.
